In patent US11548849B2, “Alcohol derivatives as KV7 potassium channel openers” (H. Lundbeck A/S, priority 2019, dated 2023):

How the values were obtained:
hKv7.2/hKv7.3 [1] = target: T1, hKv7.2/hKv7.3 (Homo sapiens, UniProt O43525+O43526); assay: Thallium influx assay for potassium channel activation; assay type: cell-based; conditions: HEK-hKv7.2/hKv7.3 cells; FLIPR Potassium Assay kit; AUC readout normalized to a reference compound
T1 construct: P2A self-cleaving peptide (between Kv7.3 and Kv7.2; the remnant would stay on the upstream protein) (C); expressed in transfected cells
Protocol: (§1) A synthesized cDNA fragment encoding human Kv7.3 and human Kv7.2 separated by a P2A sequence was inserted into the pcDNA5/FRT/TO vector using the BamHI and XhoI restriction sites. The construct was then transfected into HEK Flp-In 293 cells using Lipofectamine2000. The transfected cells were grown for 48 hours in DMEM containing 10% (v/v) FBS and 1% PenStrep and subsequently maintained under selection in DMEM containing 10% (v/v) FBS, 1% PenStrep and 200 ug/mL Hygromycin B at 37° C. in a humidified atmosphere of 5% CO2.
The thallium influx assay for potassium channel activation was performed analogously to a published procedure (C. D. Weaver, et al., J Biomol Screen 2004, 9, 671-677) using the FLIPR Potassium Assay kit (Molecular Devices). HEK-hKv7.2/hKv7.3 cells were plated onto 96-well, black-walled, clear-bottomed culture plates (Corning, Acton, Mass., USA) at a density of 80,000 cells/well (100 μl/well) if the cells were assayed the following day, or 40,000 cells/well (100 μl/well) if the cells were assayed two days after seeding.
On the assay day, the medium was removed after which 50 uL/well of test compound diluted to 2× final concentration in HBSS containing 20 mM HEPES, and 50 uL/well of 2× dye load buffer were added. The cells were then incubated for 60 min at room temperature in the dark. Chloride-free stimulation buffer containing Tl^+ and K^+ at 5× final concentration (5× concentration: 5 mM in both cases) and test compound at 1× final concentration, were prepared during the incubation. The cells were then assayed in a FDSS7000EX Functional Drug Screening System (Hamamatsu). Following 60 sec of baseline fluorescence signal reading at 0.1 Hz, and 10 sec at 1 Hz, 25 uL/well of stimulation buffer were added and the fluorescence continuously measured for 50 sec at 1 Hz followed, by 4 min at 0.1 Hz. Compound effect was quantified using AUC as readout and normalized to a reference compound, which was included on each plate.

hKv7.2/hKv7.3 [2] = target: T1, hKv7.2/hKv7.3; assay: Automated whole cell patch-clamp functional test of HEK-hKv7.2/hKv7.3 cell line; assay type: cell-based; conditions: stable HEK-hKv7.2/hKv7.3 cell line
Protocol: as §1

| Structure (SMILES) | EC50 (hKv7.2/hKv7.3 [1]) [nM] | effect on Kv7-current (hKv7.2/hKv7.3 [2]) |
| --- | --- | --- |
| CC(C)CC(C)(O)CC(=O)N[C@@H](COC(F)F)c1cccc(OC(F)F)c1 (single isomer, unassigned) [Example 13a] | 960 |  |
| CC(C)CC(C)(O)CC(=O)N[C@@H](COC(F)F)c1cccc(OC(F)F)c1 (single isomer, unassigned) [Example 13b] | 360 |  |
| CC(C)C(C)(O)CC(=O)N[C@@H](COC(F)F)c1cccc(OC(F)F)c1 (single isomer, unassigned) [Example 14a] | 5200 |  |
| CC(C)C(C)(O)CC(=O)N[C@@H](COC(F)F)c1cccc(OC(F)F)c1 (single isomer, unassigned) [Example 14b] | 1300 |  |
| CC1(C)CC(C(O)CC(=O)N[C@@H](COC(F)F)c2cccc(OC(F)F)c2)C1 (single isomer, unassigned) [Example 15a] | 3700 |  |
| CC1(C)CC(C(O)CC(=O)N[C@@H](COC(F)F)c2cccc(OC(F)F)c2)C1 (single isomer, unassigned) [Example 15b] | 650 |  |
| O=C(CC(O)C1CCCC1)N[C@@H](COC(F)F)c1cccc(OC(F)F)c1 (single isomer, unassigned) [Example 16a] | 2600 |  |
| O=C(CC(O)C1CCCC1)N[C@@H](COC(F)F)c1cccc(OC(F)F)c1 (single isomer, unassigned) [Example 16b] | 430 |  |
| COC[C@H](NC(=O)C[C@](C)(O)C1(F)CC1)c1cccc(OC(F)(F)F)c1 (single isomer, unassigned) [Example 36a] | 2700 |  |
| COC[C@H](NC(=O)C[C@@](C)(O)C1(F)CC1)c1cccc(OC(F)(F)F)c1 (single isomer, unassigned) [Example 36b] | 16000 |  |
| CC(C)(C)[C@@H](O)CC(=O)N[C@@H](COC1CC1)c1cccc(OC(F)F)c1 [Example 17, (S)—N—((R)-2-cyclopropoxy-1-(3-(difluoromethoxy)phenyl)ethyl)-3-hydroxy-4,4-dimethylpentanamide] | 1500 |  |
| CC(C)(C)[C@@H](O)CC(=O)N[C@@H](COC(F)(F)F)c1cccc(OC(F)F)c1 [Example 18, (S)—N—((R)-1-(3-(difluoromethoxy)phenyl)-2-(trifluoromethoxy)ethyl)-3-hydroxy-4,4-dimethylpentanamide] | 950 |  |
| CC(C)(C)[C@@H](O)CC(=O)N[C@@H](COC(F)(F)F)c1cccc(OC(F)(F)F)c1 [Example 19, (S)—N—((R)-1-(3-(trifluoromethoxy)phenyl)-2-(trifluoromethoxy)ethyl)-3-hydroxy-4,4-dimethylpentanamide] | 940 |  |
| CCC[C@H](NC(=O)C[C@H](O)C(C)(C)C)c1cccc(OC(F)F)c1 [Example 20, (S)—N—((S)-1-(3-(difluoromethoxy)phenyl)butyl)-3-hydroxy-4,4-dimethylpentanamide] | 1500 |  |
| CC(C)(C)[C@@H](O)CC(=O)N[C@@H](CCC(F)F)c1cccc(OC(F)F)c1 [Example 21, (S)—N—((S)-1-(3-(difluoromethoxy)phenyl)-4,4-difluorobutyl)-3-hydroxy-4,4-dimethylpentanamide] | 1000 |  |
| CC(C)(C)[C@@H](O)CC(=O)N[C@@H](CC(F)F)c1cccc(OC(F)F)c1 [Example 22, (S)—N—((S)-1-(3-(difluoromethoxy)phenyl)-3,3-difluoropropyl)-3-hydroxy-4,4-dimethylpentanamide] | 4500 |  |

| Structure (SMILES) | EC50 (hKv7.2/hKv7.3 [1]) [nM] | effect on Kv7-current (hKv7.2/hKv7.3 [2]) |
| --- | --- | --- |
| C[C@H](NC(=O)C[C@H](O)C(C)(C)C)c1cccc(OC(F)F)c1 [Example 23, (S)—N—((S)-1-(3-(difluoromethoxy)phenyl)ethyl)-3-hydroxy-4,4-dimethylpentanamide] | 1500 |  |
| CC(C)(C)[C@@H](O)CC(=O)N[C@@H](CC#N)c1cccc(OC(F)(F)F)c1 [Example 24, (S)—N—((S)-2-cyano-1-(3-(trifluoromethoxy)phenyl)ethyl)-3-hydroxy-4,4-dimethylpentanamide] | 2400 |  |
| CC(C)(C)[C@@H](O)CC(=O)N[C@@H](CCC#N)c1cccc(OC(F)(F)F)c1 [Example 25, (S)—N—((S)-3-cyano-1-(3-(trifluoromethoxy)phenyl)propyl)-3-hydroxy-4,4-dimethylpentanamide] | 1900 |  |
| O=C(CC1(O)CC(F)(F)C1)N[C@@H](COC(F)F)c1cccc(OC(F)F)c1 [Example 26, (R)-2-(3,3-difluoro-1-hydroxycyclobutyl)-N-(2-(difluoromethoxy)-1-(3-(difluoromethoxy)phenyl)ethyl)acetamide] | 960 |  |
| O=C(CC1(O)CC(F)(F)C1)N[C@@H](COC(F)F)c1cccc(OC(F)(F)F)c1 [Example 27, (R)-2-(3,3-difluoro-1-hydroxycyclobutyl)-N-(2-(difluoromethoxy)-1-(3-(trifluoromethoxy)phenyl)ethyl)acetamide] | 2300 |  |
| O=C(CC1(O)CC(F)(F)C1)N[C@@H](COC1CC1)c1cccc(OC(F)(F)F)c1 [Example 28, (R)—N-(2-cyclopropoxy-1-(3-(trifluoromethoxy)phenyl)ethyl)-2-(3,3-difluoro-1-hydroxycyclobutyl)acetamide] | 3200 |  |
| O=C(CC1(O)CC(F)(F)C1)N[C@@H](COC1CC1)c1cccc(OC(F)F)c1 [Example 29, (R)—N-(2-cyclopropoxy-1-(3-(difluoromethoxy)phenyl)ethyl)-2-(3,3-difluoro-1-hydroxycyclobutyl)acetamide] | 5400 |  |
| O=C(CC1(O)CC(F)(F)C1)N[C@@H](COC(F)(F)F)c1cccc(OC(F)F)c1 [Example 30, (R)-2-(3,3-difluoro-1-hydroxycyclobutyl)-N-(1-(3-(difluoromethoxy)phenyl)-2-(trifluoromethoxy)ethyl)acetamide] | 1800 |  |
| CCC[C@H](NC(=O)CC1(O)CC(F)(F)C1)c1cccc(OC(F)F)c1 [Example 31, (S)-2-(3,3-difluoro-1-hydroxycyclobutyl)-N-(1-(3-(difluoromethoxy)phenyl)butyl)acetamide] | 2600 |  |
| O=C(CC1(O)CC(F)(F)C1)N[C@@H](CCC(F)F)c1cccc(OC(F)F)c1 [Example 32, (S)-2-(3,3-difluoro-1-hydroxycyclobutyl)-N-(1-(3-(difluoromethoxy)phenyl)-4,4-difluorobutyl)acetamide] | 2500 |  |
| CC[C@H](NC(=O)CC1(O)CC(F)(F)C1)c1cccc(OC(F)(F)F)c1 [Example 33, (S)-2-(3,3-difluoro-1-hydroxycyclobutyl)-N-(1-(3-(trifluoromethoxy)-phenyl)propy) acetamide] | 2100 |  |
| N#CC[C@H](NC(=O)CC1(O)CC(F)(F)C1)c1cccc(OC(F)(F)F)c1 [Example 34, (S)—N-(2-cyano-1-(3-(trifluoromethoxy)phenyl)ethyl)-2-(3,3-difluoro-1-hydroxycyclobutyl)acetamide] | 2500 |  |
| O=C(CC1(O)CC(F)(F)C1)N[C@@H](CC(F)F)c1cccc(OC(F)(F)F)c1 [Example 35, (S)—N-(3,3-difluoro-1-(3-(trifluoromethoxy)phenyl)propyl)-2-(3,3-difluoro-1-hydroxycyclobutyl)acetamide] | 3500 |  |
| CCOC(=O)Nc1ccc(NCc2ccc(F)cc2)cc1N [Retigabine, N-(2-amino-4-(4-fluorobenzylamino)-phenyl) carbamic acid ethyl ester] |  | potentiated |
| O=C1c2ccccc2C(Cc2ccncc2)(Cc2ccncc2)c2ccccc21 [XE991] |  | sensitive |
